Measured values published in patent US20240246964A1 (Arbutus Biopharma Corporation, priority 2021, published 2024).

Biological target: human PD-L1 (Homo sapiens (Human), UniProt Q9NZQ7)
Assay: T cell activation luciferase reporter cell culture system (T Cell Activation Assay)
Assay type: cell-based
Conditions: luciferase reporter assay; PD-L1 aAPC/CHO-K1 cells with PD-1 effector Jurkat T cells

human PD-L1, sequence (Q9NZQ7 19-290): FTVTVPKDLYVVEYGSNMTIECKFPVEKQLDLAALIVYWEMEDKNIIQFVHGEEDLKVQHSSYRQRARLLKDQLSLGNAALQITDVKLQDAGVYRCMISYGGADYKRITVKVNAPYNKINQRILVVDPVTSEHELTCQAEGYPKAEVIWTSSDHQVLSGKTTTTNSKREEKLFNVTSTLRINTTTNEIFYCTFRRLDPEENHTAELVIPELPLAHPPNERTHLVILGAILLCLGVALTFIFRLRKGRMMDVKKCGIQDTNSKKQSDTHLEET

`COc1cc(-c2nccc(-c3cccc(-c4ccc(CN5CC6(CNC(=O)C6)C5)c(OC)n4)c3Cl)c2Cl)ccc1CN[C@H]1CC[C@H](O)CC1` [Example 502, 2-((6-(2-Chloro-3-(3-chloro-2-(4-((((1r,4r)-4-hydroxycyclohexyl)-amino)-methyl)-3-methoxyphenyl)pyridin-4-yl)phenyl)-2-methoxypyridin-3-yl)methyl)-2,6-diazaspiro[3.4]octan-7-one] was tested, and the EC50 was 28.9 nM.

Work on `COc1cc(-c2nccc(-c3cccc(-c4ccc(CN5CC6(CNC(=O)C6)C5)c(OC)n4)c3Cl)c2Cl)ccc1CN[C@H]1CC[C@@H](O)CC1` [Example 503, 2-((6-(2-Chloro-3-(3-chloro-2-(4-((((1s,4s)-4-hydroxycyclohexyl)-amino)-methyl)-3-methoxyphenyl)pyridin-4-yl)phenyl)-2-methoxypyridin-3-yl)methyl)-2,6-diazaspiro[3.4]octan-7-one] yielded an EC50 of 36.2 nM.

`COc1cc(-c2nccc(-c3cccc(-c4ccc(CNCC5(O)CC5)c(OC)n4)c3Cl)c2Cl)ccc1CNCC1(O)CC1` [Example 504, 1-((((6-(2-Chloro-3-(3-chloro-2-(4-((((1-hydroxycyclopropyl)methyl)amino)methyl)-3-methoxyphenyl)pyridin-4-yl)phenyl)-2-methoxypyridin-3-yl)methyl)amino)methyl)cyclopropan-1-ol] was tested, and the EC50 was 36.4 nM.

For `COc1cc(-c2nccc(-c3cccc(-c4ccc(CNCC(F)F)c(OC)n4)c3Cl)c2Cl)ccc1CNCC(F)F` [Example 505, N-((6-(2-Chloro-3-(3-chloro-2-(4-(((2,2-difluoroethyl)amino)methyl)-3-methoxyphenyl)pyridin-4-yl)phenyl)-2-methoxypyridin-3-yl)methyl)-2,2-difluoroethan-1-amine], the EC50 was ≥ 10000 nM.

For `COc1cc(-c2nccc(-c3cccc(-c4ccc(CNC5CCOCC5)c(OC)n4)c3Cl)c2Cl)ccc1CN1CC2(CNC(=O)C2)C1` [Example 506, 2-(4-(3-Chloro-4-(2-chloro-3-(6-methoxy-5-(((tetrahydro-2H-pyran-4-yl)amino)methyl)pyridin-2-yl)phenyl)pyridin-2-yl)-2-methoxybenzyl)-2,6-diazaspiro[3.4]octan-7-one], the EC50 was 25 nM.

For `COc1cc(-c2nccc(-c3cccc(-c4ccc(CNC5CCN(C(C)=O)CC5)c(OC)n4)c3Cl)c2Cl)ccc1CN1CCC[C@H](O)C1` [Example 507, (S)-1-(4-(((6-(2-Chloro-3-(3-chloro-2-(4-((3-hydroxypiperidin-1-yl)methyl)-3-methoxyphenyl)pyridin-4-yl)phenyl)-2-methoxypyridin-3-yl)methyl)amino)piperidin-1-yl)ethan-1-one], the EC50 was 45.2 nM.

`COc1cc(-c2nccc(-c3cccc(-c4ccc(CNC5CCN(C(C)=O)CC5)c(OC)n4)c3Cl)c2Cl)ccc1CN1CCC(CO)CC1` [Example 508, 1-(4-(((6-(2-Chloro-3-(3-chloro-2-(4-((4-(hydroxymethyl)piperidin-1-yl)methyl)-3-methoxyphenyl)pyridin-4-yl)phenyl)-2-methoxypyridin-3-yl)methyl)amino)piperidin-1-yl)ethan-1-one] showed an EC50 of 35.1 nM.

With `COCC(=O)N1CCC(NCc2ccc(-c3cccc(-c4ccnc(-c5ccc(CN6CCC(O)CC6)c(OC)c5)c4Cl)c3Cl)nc2OC)CC1` [Example 510, 1-(4-(((6-(2-Chloro-3-(3-chloro-2-(4-((4-hydroxypiperidin-1-yl)methyl)-3-methoxyphenyl)pyridin-4-yl)phenyl)-2-methoxypyridin-3-yl)methyl)amino)piperidin-1-yl)-2-methoxyethan-1-one] the EC50 was 27 nM.

With `COc1cc(-c2nccc(-c3cccc(-c4ccc(CN5CC6(C5)CN(C(C)=O)C6)c(OC)n4)c3Cl)c2Cl)ccc1CNC1CCOCC1` [Example 511, 1-(6-((6-(2-Chloro-3-(3-chloro-2-(3-methoxy-4-(((tetrahydro-2H-pyran-4-yl)amino)methyl)phenyl)pyridin-4-yl)phenyl)-2-methoxypyridin-3-yl)methyl)-2,6-diazaspiro[3.3]heptan-2-yl)ethan-1-one] the EC50 was 20.7 nM.

`COc1cc(-c2nccc(-c3cccc(-c4ccc(CNC5CCN(C(C)=O)CC5)c(OC)n4)c3Cl)c2Cl)ccc1CNCC1(O)CC1` [Example 512, 1-(4-(((6-(2-Chloro-3-(3-chloro-2-(4-((((1-hydroxycyclopropyl)methyl)amino)methyl)-3-methoxyphenyl)pyridin-4-yl)phenyl)-2-methoxypyridin-3-yl)methyl)amino)piperidin-1-yl)ethan-1-one] gave an EC50 of 32.8 nM.

`COc1cc(-c2nccc(-c3cccc(-c4ccc(CNC(C)C)c(OC)n4)c3Cl)c2Cl)ccc1CNC(C)C` [Example 514, N-((6-(2-Chloro-3-(3-chloro-2-(4-((isopropylamino)methyl)-3-methoxyphenyl)pyridin-4-yl)phenyl)-2-methoxypyridin-3-yl)methyl)propan-2-amine] gave an EC50 of 94.5 nM.

`COc1cc(-c2nccc(-c3cccc(-c4ccc(CN[C@H]5CC[C@H](O)CC5)c(OC)n4)c3Cl)c2Cl)ccc1CN1CC2(CNC(=O)C2)C1` [Example 515, 2-(4-(3-Chloro-4-(2-chloro-3-(5-((((1r,4r)-4-hydroxycyclohexyl)-amino)methyl)-6-methoxypyridin-2-yl)phenyl)pyridin-2-yl)-2-methoxybenzyl)-2,6-diazaspiro[3.4]octan-7-one] gave an EC50 of 17.8 nM.

`COc1cc(-c2nccc(-c3cccc(-c4ccc(CN[C@H]5CC[C@@H](O)CC5)c(OC)n4)c3Cl)c2Cl)ccc1CN1CC2(CNC(=O)C2)C1` [Example 516, 2-(4-(3-Chloro-4-(2-chloro-3-(5-((((1s,4s)-4-hydroxycyclohexyl)amino)-methyl)-6-methoxypyridin-2-yl)phenyl)pyridin-2-yl)-2-methoxybenzyl)-2,6-diazaspiro[3.4]octan-7-one] gave an EC50 of 50.4 nM.

`COc1cc(-c2nccc(-c3cccc(-c4ccc(CN5CC6(CNC6)C5)c(OC)n4)c3Cl)c2Cl)ccc1CN1CC2(CNC(=O)C2)C1` [Example 520, 2-(4-(4-(3-(5-((2,6-Diazaspiro[3.3]heptan-2-yl)methyl)-6-methoxypyridin-2-yl)-2-chlorophenyl)-3-chloropyridin-2-yl)-2-methoxybenzyl)-2,6-diazaspiro[3.4]octan-7-one] was tested, and the EC50 was 66.6 nM.

With `COc1cc(-c2nccc(-c3cccc(-c4ccc(CN5CC6(CC(O)C6)C5)c(OC)n4)c3Cl)c2Cl)ccc1CN1CC2(CNC(=O)C2)C1` [Example 521, 2-(4-(3-Chloro-4-(2-chloro-3-(5-((6-hydroxy-2-azaspiro[3.3]heptan-2-yl)methyl)-6-methoxypyridin-2-yl)phenyl)pyridin-2-yl)-2-methoxybenzyl)-2,6-diazaspiro[3.4]octan-7-one] the EC50 was 8.63 nM.

Work on `COc1cc(-c2ncnc(-c3cccc(-c4ccc(CNC[C@@H]5CCC(=O)N5)c(OC)n4)c3Cl)c2C)ccc1CNC[C@@H]1CCC(=O)N1` [Example 523, (S)-5-((((6-(2-Chloro-3-(6-(3-methoxy-4-(((((S)-5-oxopyrrolidin-2-yl)methyl)amino)methyl)phenyl)-5-methylpyrimidin-4-yl)phenyl)-2-methoxypyridin-3-yl)methyl)amino)methyl)pyrrolidin-2-one] yielded an EC50 of 92.4 nM.

With `COc1cc(-c2nccc(-c3cccc(-c4ccc(CNC5CCCCC5)c(OC)n4)c3Cl)c2Cl)ccc1CNC1CCCCC1` [Example 524, N-((6-(2-Chloro-3-(3-chloro-2-(4-((cyclohexylamino)methyl)-3-methoxyphenyl)pyridin-4-yl)phenyl)-2-methoxypyridin-3-yl)methyl)cyclohexanamine] the EC50 was 347 nM.
